Where “and” joins values, the source holds several entries; their conditions need not be identical. Equal entries are not always repeated.
Key:
[1] = target: Glycogen synthase kinase-3 alpha (Homo sapiens, UniProt P49840); assay: TR-FRET Assay
Procedure, shortened: (§1)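 Signal is measured as TR-FRET between a terbium anti-phospho-Ser641 antibody and streptavidin-d2, added after an EDTA quench. Compounds are preincubated 30 min in assay buffer.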

[2] = target: Glycogen synthase kinase-3 beta (Homo sapiens, UniProt P49841); assay: TR-FRET Assay
Procedure, shortened: as §1

Sequence of Glycogen synthase kinase-3 beta (P49841 whole entry): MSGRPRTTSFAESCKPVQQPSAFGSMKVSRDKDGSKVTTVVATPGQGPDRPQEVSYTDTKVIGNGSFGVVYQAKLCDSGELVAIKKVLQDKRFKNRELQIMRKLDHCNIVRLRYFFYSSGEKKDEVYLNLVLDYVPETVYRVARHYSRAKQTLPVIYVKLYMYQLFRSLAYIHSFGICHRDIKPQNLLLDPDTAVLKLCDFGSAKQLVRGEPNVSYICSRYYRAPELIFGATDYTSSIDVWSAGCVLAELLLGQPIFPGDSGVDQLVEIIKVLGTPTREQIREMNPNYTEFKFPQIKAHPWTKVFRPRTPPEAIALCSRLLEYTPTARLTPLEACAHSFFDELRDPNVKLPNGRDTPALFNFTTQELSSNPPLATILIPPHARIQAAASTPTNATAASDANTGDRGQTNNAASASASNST
Sequence of Glycogen synthase kinase-3 alpha (P49840 whole entry): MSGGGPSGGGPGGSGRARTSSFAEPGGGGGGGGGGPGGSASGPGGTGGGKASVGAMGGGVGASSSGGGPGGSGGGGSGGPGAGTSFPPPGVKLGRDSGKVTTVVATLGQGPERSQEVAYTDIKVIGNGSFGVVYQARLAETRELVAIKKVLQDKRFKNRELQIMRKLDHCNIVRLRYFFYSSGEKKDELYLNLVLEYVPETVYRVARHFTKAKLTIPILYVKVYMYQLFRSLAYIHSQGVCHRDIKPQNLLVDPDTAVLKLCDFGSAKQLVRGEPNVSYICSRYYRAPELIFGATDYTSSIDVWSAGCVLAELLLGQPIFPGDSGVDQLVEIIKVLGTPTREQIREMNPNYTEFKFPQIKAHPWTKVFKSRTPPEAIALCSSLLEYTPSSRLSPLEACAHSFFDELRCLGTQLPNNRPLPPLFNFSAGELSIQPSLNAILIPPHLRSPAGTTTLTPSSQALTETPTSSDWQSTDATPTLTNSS

| Compound | IC50 [1] | IC50 [2] |
| --- | --- | --- |
| CC[C@@]1(c2cccc(-c3cnn(-c4ccccn4)c3)c2)C2=CN=NC2NC2=C1C(=O)NC(C)(C)C2 (stereo partly specified) [US20250313563, Compound 952566] | 100 to 1000 nM | 1000 to 5000 nM |
| CCN(c1cccnc1)c1cccc(C2(CC)C3=CN=NC3NC3=C2C(=O)CC(C)(C)C3)c1 (stereo unspecified) [US20250313563, Compound 885331] | < 100 nM | < 100 nM |
| CC(C)c1ccccc1S(=O)(=O)N1CCC2(CC1)C1=C(N=NC1)NC1=C2C(=O)CC(C)(C)C1 [US20250313563, Compound 947473] | 100 to 1000 nM | 100 to 1000 nM |
| CCC1(c2cccc(-c3ccnc(OC(C)C)c3)c2)C2=CN=NC2NC2=C1C(=O)CC(C)(C)C2 (stereo unspecified) [US20250313563, Compound 932626] | 100 to 1000 nM | 100 to 1000 nM |
| CN1CCC2(CC1)C1=C(N=NC1)NC1=C2C(=O)CC(C)(C)C1 [US20250313563, Compound 826714] | > 5000 nM | > 5000 nM |
| CC1CC(C(=O)N2CC3(C2)CC2(CO3)C3=C(N=NC3)NC3=C2C(=O)CC(C)(C)C3)C1 (stereo unspecified) [US20250313563, Compound 947266] | < 100 nM | < 100 nM |
| CC[C@]1(c2cccc(N3CCCC[C@H]3C)c2)C2=CN=NC2NC2=C1C(=O)CC(C)(C)C2 (stereo partly specified) [US20250313563, Compound 917209] | < 100 nM | 100 to 1000 nM |
| CCC1(c2ccc(C)cc2)C2=C(CC(C)(C)CC2=O)NC2N=NC(C(F)(F)F)=C21 (stereo unspecified) [US20250313563, Compound 883866] | < 100 nM | < 100 nM |
| CC[C@@]1(c2cccc(C(F)(F)F)c2)C2=CN=NC2NC2=C1C(=O)N(c1cccc(C)c1)CC2 (stereo partly specified) [US20250313563, Compound 949041] | 1000 to 5000 nM | > 5000 nM |
| Cc1nccc([C@H]2CC[C@]3(CC2)C2=C(N=NC2)NC2=C3C(=O)CC(C)(C)C2)c1C [US20250313563, Compound 950478] | < 100 nM | < 100 nM |
| CCC1(c2cccc(-c3cnn(C)c3)c2)C2=CN=NC2NC2=C1C(=O)NC(C)(C)C2 (stereo unspecified) [US20250313563, Compound 943912] | < 100 nM | 1000 to 5000 nM |
| CC[C@]1(c2cccc(N3CCCC3)c2)C2=CN=NC2NC2=C1C(=O)CC(C)(C)C2 (stereo partly specified) [US20250313563, Compound 810509] | > 5000 nM | > 5000 nM |
| CCC1(c2cccc(-c3ccnc(OC)c3)c2)C2=C(CC(C)(C)CC2=O)NC2N=NC(C)=C21 (stereo unspecified) [US20250313563, Compound 883985] | < 100 nM | 100 to 1000 nM |
| CC[C@@]1(c2cccc(-c3cnn(C4CCCCC4)c3)c2)C2=CN=NC2NC2=C1C(=O)NC(C)(C)C2 (stereo partly specified) [US20250313563, Compound 951707] | 100 to 1000 nM | 1000 to 5000 nM |
| CC[C@]1(c2cccc(C(F)(F)F)c2)C2=CN=NC2NC2=C1C(=O)NC[C@H]2C (stereo partly specified) [US20250313563, Compound 945383] | < 100 nM | 100 to 1000 nM |
| CC1(C)CC(=O)C2=C(C1)NC1=C(CN=N1)[C@@]21COC2(CN(C(=O)[C@@H]3CC3(F)F)C2)C1 [US20250313563, Compound 948221] | 100 to 1000 nM | 100 to 1000 nM |
| CC[C@]1(c2cccc(-c3ccnc(C)c3)c2)C2=C(CC(C)(C)NC2=O)NC2N=NC(Cl)=C21 (stereo partly specified) [US20250313563, Compound 949421] | 100 to 1000 nM | > 5000 nM |
| CC1(C)CC(=O)C2=C(C1)NC1=C(CN=N1)C21CCN(S(=O)(=O)c2ccccc2Cl)CC1 [US20250313563, Compound 945655] | < 100 nM | < 100 nM |
| CC1(C)CC(=O)C2=C(C1)NC1=C(CN=N1)C21COC2(CN(C(=O)CC3CCCCC3)C2)C1 (stereo unspecified) [US20250313563, Compound 947305] | < 100 nM | < 100 nM |
| CCC1(c2cccc(C(F)(F)F)c2)C2=CN=NC2NC2=C1C(=O)NCC2 (stereo unspecified) [US20250313563, Compound 870263] | 100 to 1000 nM | > 5000 nM |
| CCN(C(C)=O)c1cccc([C@]2(CC)C3=CN=NC3NC3=C2C(=O)CC(C)(C)C3)c1 (stereo partly specified) [US20250313563, Compound 909215] | 100 to 1000 nM | 1000 to 5000 nM |
| CCC1(c2cccc(N3CCc4cnccc4C3)c2)C2=CN=NC2NC2=C1C(=O)CC(C)(C)C2 (stereo unspecified) [US20250313563, Compound 929449] | 1000 to 5000 nM | 1000 to 5000 nM |
| CCC1(c2cccc(-c3ccnc(C)c3)c2)C2=C(CC(C)(C)NC2=O)NC2N=NC(C(F)F)=C21 (stereo unspecified) [US20250313563, Compound 949169] | < 100 nM and 100 to 1000 nM | < 100 nM and 1000 to 5000 nM |
| CC1(C)CC(=O)C2=C(C1)NC1=C(CN=N1)C21CN(S(=O)(=O)C2CC2)C1 [US20250313563, Compound 913259] | < 100 nM | < 100 nM |
| CCC1(c2cccc(-c3ccnn3C)c2)C2=CN=NC2NC2=C1C(=O)NC(C)(C)C2 (stereo unspecified) [US20250313563, Compound 914971] | < 100 nM | 100 to 1000 nM |
| CC(C)n1cc(S(=O)(=O)N2CCC3(CC2)C2=C(N=NC2)NC2=C3C(=O)CC(C)(C)C2)cn1 [US20250313563, Compound 947607] | < 100 nM | < 100 nM |
| CCC1(c2cccc(C(F)(F)F)c2)C2=C(CC(C)(C)CC2=O)NC2N=NC(C(F)(F)F)=C21 (stereo unspecified) [US20250313563, Compound 789584] | 100 to 1000 nM | 1000 to 5000 nM |
| CC1(C)CC(=O)C2=C(C1)NC1=C(CN=N1)C21CCN(S(=O)(=O)c2ccccc2OC(F)F)CC1 [US20250313563, Compound 945668] | < 100 nM | < 100 nM and 100 to 1000 nM |
| CC[C@]1(c2cccc(-c3cnn(C(C)(C)C)c3)c2)C2=CN=NC2NC2=C1C(=O)NC(C)(C)C2 (stereo partly specified) [US20250313563, Compound 949107] | > 5000 nM | > 5000 nM |
| CC[C@]1(c2cccc(-c3cc(C)nc(C)c3)c2)C2=CN=NC2NC2=C1C(=O)CC(C)(C)C2 (stereo partly specified) [US20250313563, Compound 913222] | < 100 nM | 100 to 1000 nM |

Other lines, results leading:

| IC50 [1] | IC50 [2] | Compound |
| --- | --- | --- |
| 100 to 1000 nM | 100 to 1000 nM | CC[C@@]1(c2cccc(-c3cnn(C)c3)c2)C2=C(CC(C)(C)CC2=O)NC2N=NC(C(F)(F)F)=C21 (stereo partly specified) [US20250313563, Compound 811567] |
| 1000 to 5000 nM | > 5000 nM | CCC1(CCc2ccccc2)C2=C(N=NC2)NC2=C1C(=O)CC(C)(C)C2 (stereo unspecified) [US20250313563, Compound 819563] |
| 1000 to 5000 nM | > 5000 nM | CCC1(c2ccc(F)cc2)C2=C(N=NC2)NC2=C1C(=O)CC(C)(C)C2 (stereo unspecified) [US20250313563, Compound 772965] |
| > 5000 nM | > 5000 nM | CC1(C)CC(=O)C2=C(C1)NC1=C(CN=N1)[C@@]2(C)c1cccc(-c2ccccc2)c1 [US20250313563, Compound 801366] |
| < 100 nM | < 100 nM | COc1cncc(S(=O)(=O)N2CCC3(CC2)C2=C(N=NC2)NC2=C3C(=O)CC(C)(C)C2)c1 [US20250313563, Compound 947465] |
| 1000 to 5000 nM | > 5000 nM | CC1(C)CC(=O)C2=C(C1)NC1N=NC=C1[C@@]21CCCc2ccccc21 (stereo partly specified) [US20250313563, Compound 930565] |
| 1000 to 5000 nM | > 5000 nM | CC[C@@]1(c2cccc(C3CC3)c2)C2=CN=NC2NC2=C1C(=O)CC(C)(C)C2 (stereo partly specified) [US20250313563, Compound 811558] |
| < 100 nM | < 100 nM | COC(=O)C1(c2ccccc2)CC2(C1)C1=C(N=NC1)NC1=C2C(=O)CC(C)(C)C1 (stereo unspecified) [US20250313563, Compound 942366] |
| < 100 nM | 100 to 1000 nM | CCC1(c2cccc(N3CC4CCC3C4)c2)C2=CN=NC2NC2=C1C(=O)CC(C)(C)C2 (stereo unspecified) [US20250313563, Compound 885110] |
| < 100 nM | 100 to 1000 nM | CC[C@@]1(c2cccc(-c3c(C#N)c(C)nn3C)c2)C2=CN=NC2NC2=C1C(=O)NC(C)(C)C2 (stereo partly specified) [US20250313563, Compound 951844] |
| 100 to 1000 nM | 1000 to 5000 nM | CC[C@]1(c2cccc(N3CCCCC3)c2)C2=C(CC(C)(C)NC2=O)NC2N=NC(C(F)(F)F)=C21 (stereo partly specified) [US20250313563, Compound 949178] |
| 100 to 1000 nM | 1000 to 5000 nM | CC1(C)CC(=O)C2=C(C1)NC1=C(CN=N1)[C@@]21CCCOCC1 [US20250313563, Compound 874536] |
| 100 to 1000 nM | 100 to 1000 nM | CC1(C)CC(=O)C2=C(C1)NC1=C(CN=N1)C21CCN(CC(F)F)CC1 [US20250313563, Compound 883962] |
| < 100 nM | < 100 nM | CC[C@@]1(c2cccc(-c3ccnn3C)c2)C2=C(CC(C)(C)CC2=O)NC2N=NC(C(F)(F)F)=C21 (stereo partly specified) [US20250313563, Compound 947372] |
| 100 to 1000 nM | 1000 to 5000 nM | CC[C@]1(c2cccc(-c3ccnn3C)c2)C2=C(CC(C)(C)CC2=O)NC2N=NC(C(F)(F)F)=C21 (stereo partly specified) [US20250313563, Compound 947365] |
| < 100 nM | 100 to 1000 nM | CCC1(c2cccc(-c3ccnc(C)c3F)c2)C2=CN=NC2NC2=C1C(=O)CC(C)(C)C2 (stereo unspecified) [US20250313563, Compound 918281] |
| 1000 to 5000 nM | > 5000 nM | CC[C@@]1(c2cccc(-c3cc(C)nc4c3cnn4C)c2)C2=CN=NC2NC2=C1C(=O)NC(C)(C)C2 (stereo partly specified) [US20250313563, Compound 952563] |
| 100 to 1000 nM | 100 to 1000 nM | CC1(C)CC(=O)C2=C(C1)NC1=C(CN=N1)[C@@]21CO[C@@H](C2CC2)C1 [US20250313563, Compound 913442] |
| 100 to 1000 nM | 1000 to 5000 nM | CC[C@]1(c2cccc(-c3cnnn3C)c2)C2=CN=NC2NC2=C1C(=O)CC(C)(C)C2 (stereo partly specified) [US20250313563, Compound 947824] |
| < 100 nM | < 100 nM | CCC1(c2cccc(-c3cc(C)ncc3F)c2)C2=C(CC(C)(C)NC2=O)NC2N=NC(C)=C21 (stereo unspecified) [US20250313563, Compound 948761] |
| > 5000 nM | > 5000 nM | CC[C@]1(c2cccc(-c3cnn(-c4ccccn4)c3)c2)C2=CN=NC2NC2=C1C(=O)NC(C)(C)C2 (stereo partly specified) [US20250313563, Compound 949264] |
| < 100 nM | < 100 nM and 100 to 1000 nM | CC1(C)CC(=O)C2=C(C1)NC1=C(CN=N1)C21CCN(S(=O)(=O)c2ccc(OC(F)F)cc2)CC1 [US20250313563, Compound 947246] |
| < 100 nM | < 100 nM | CC[C@@]1(c2cccc(-c3cncn3C)c2)C2=CN=NC2NC2=C1C(=O)CC(C)(C)C2 (stereo partly specified) [US20250313563, Compound 945605] |

Source: BindingDB's records for patent US20250313563 (The Broad Institute, 2025)
